Reference: patent US7687473B2, “5-amino-4-imidazolecarboxamide riboside and its nucleobase as potentiators of antifolate transport and metabolism” (Health Research, Inc., priority 2005, dated 2010)
Where two headings read alike, the source gives them in different places.

Assays:
[1] = test system: CCRF-CEM cells; assay: Subcellular localization of [3H]MTX; assay type: cell-based, human
Description: Subcellular fractionation. […] Cells were diluted 9-fold in iced 0.9% NaCl, centrifuged at 1000×g for 5 min and washed once with 40 ml iced saline. All subsequent steps were performed at 4°. Cells were homogenized as previously described, except that hypotonic buffer at 20-fold the packed cell volume was used, and the homogenate was centrifuged for 6 min at 1000×g to yield a nuclear pellet (also containing unlysed cells and large debris) and a post-nuclear supernatant (PNS). Based on controls using nonradiolabeled cells, >91% of the cells would be lysed during homogenization. The PNS was centrifuged at 17,000×g to yield a combined mitochondria-lysosome pellet. The resulting supernatant was centrifuged at 100,000×g for 60 min to yield the 100,000×g supernatant (cytosol). The 100,000×g pellet (microsomes) and the combined mitochondria-lysosome pellet were each washed in isotonic buffer and centrifuged at their respective g-forces. All pellets were solubilized in 0.3% Triton X-100 by incubating at 37° for 1 hr; 1 ml was transferred to a scintillation vial for quantitation. Triton X-100 was added to the cytosol to a final concentration of 0.3% and a 1 ml aliquot was quantitated. Radioactivity in each fraction was corrected for a blank containing 0.3% Triton X-100.

[2] = test system: R2 (MTX-resistant CCRF-CEM subline); assay: Inhibition of growth of RFC-defective subline R2; assay type: cell-based; conditions: Homo sapiens, continuous exposure, no Z, read-out: EC50 against R2
Description: (§1) Inhibition of growth of human cell lines in vitro. Inhibition of growth of CCRF-CEM in continuous and intermittent drug exposures was measured. EC50 values were determined from plots of percent control growth versus the logarithm of drug concentration.
TMTX was present in both conditions to establish DHFR inhibition, since that appears to be required.

[3] = test system: CCRF-CEM cells; assay: Protein-bound intracellular [3H]MTX; assay type: cell-based, human
Description: The cell pellet was frozen immediately at less than or equal to −80 degrees C. To process, 1 ml iced lysis buffer was added to the pellet immediately after removal from the freezer and the pellet was dispersed with a pasteur pipette. Freshly made lysis buffer contained (final concentrations): 50 mM citric-citrate, pH 6.0, 50 mM 2-mercaptoethanol, 50 μM NADPH (in 25 mM Tris, pH7.5), and 2 mg/ml bovine serum albumin. The sample was freeze-thawed once in dry ice-methanol, centrifuged at 1860×g for 10 min to remove debris and then further clarified by centrifugation through an Amicon MPS-1 filter unit. A 5 ml centrifugal column was prepared at 4 degrees C. in a 5 ml plastic syringe plugged with a porous plastic frit overlaid with a GF/C glass fiber filter cut with a #8 cork borer, then packed with Sephadex G-25 (Medium) in 50 mM citric-citrate, pH 6.0 to the 5 ml line, and centrifuged 5 min at 1000×g (0°) to expel liquid. The clarified supernatant (0.5 ml) was applied to the top of the column, the column was re-centrifuged at 1000×g (5 min) and the pass-through was collected in a 7 ml scintillation vial. After addition of scintillation fluid (5.5 ml), the sample was quantitated by liquid scintillation counting.

[4] = human, in vivo; cited from earlier work
[5] = molecular target: T1, es (or ENT1) facilitated diffusion nucleoside transport system (Homo sapiens, UniProt Q99808); assay: Inhibition of Z potentiation of [3H]MTX uptake by es nucleoside transporter inhibitors; assay type: cell-based; conditions: [Z] 500 μM, HBSS
T1 construct: this is the only nucleoside transporter present in CCRF-CEM cells; endogenous in cells; host or cells: CCRF-CEM (parental), in HBSS
T1 sequence (Q99808 1-456): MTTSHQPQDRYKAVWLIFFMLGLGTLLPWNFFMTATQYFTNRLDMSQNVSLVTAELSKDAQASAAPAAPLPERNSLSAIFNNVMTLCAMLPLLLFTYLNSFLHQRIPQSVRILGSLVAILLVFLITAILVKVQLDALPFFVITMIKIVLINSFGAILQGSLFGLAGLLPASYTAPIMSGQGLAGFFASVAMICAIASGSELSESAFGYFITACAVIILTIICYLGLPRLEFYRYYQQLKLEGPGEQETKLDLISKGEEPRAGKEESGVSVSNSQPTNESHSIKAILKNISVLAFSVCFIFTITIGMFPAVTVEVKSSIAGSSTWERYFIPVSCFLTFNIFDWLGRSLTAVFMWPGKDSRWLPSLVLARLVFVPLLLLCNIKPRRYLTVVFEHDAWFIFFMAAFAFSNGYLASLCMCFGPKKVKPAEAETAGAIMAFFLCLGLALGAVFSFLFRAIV

[6] = test system: CCRF-CEM cells; assay: cells; assay type: cell-based, human; conditions: read-out: EC50, growth inhibition
Description: as §1
[…]; n=2). […]; n=2). Values presented are average±S.D. for n>2 and average±range for n=2. […] […]; EC50 data may therefore underestimate the biological potency.

[7] = test system: R2 clones transfected with human RFC expression plasmid; assay: [3H]MTX transport in RFC-transfected R2 clones; assay type: cell-based
Description: To further confirm the involvement of RFC, we transfected the RFC-negative R2 subline of CCRF-CEM with a human RFC expression plasmid. Stably expressing clones were selected in 2 nM leucovorin (LV)-containing RPMI 1640 medium (R2 cannot replicate in this medium, while parental RFC-expressing CCRF-CEM can replicate). […] This supports RFC as mediating the transport potentiated by Z.

EC50 [2] [µM] | Rel Corrected 30 min accumulation (relative to +Z, no inhibitor) [5] | Relative Corrected vi (relative to +Z, no inhibitor) [5] | Accumulation at 30 min ([5]; no inhibitor) [pmol] | Corrected 30 min accumulation (accum +Z minus accum −Z with same inhibitor) ([5]; no inhibitor) | Corrected vi (rate +Z minus rate −Z with same inhibitor) ([5]; no inhibitor) | vi ([5]; no inhibitor) [pmol/min] | EC50 ([6]; 0-24/120 hr exposure) [µM] | EC50 ([6]; 120 hr exposure) [µM] | SMILES | Cytosol material that is MTX or metabolites (HPLC) [1] [%] | Radioactivity that is cytosolic, post-nuclear supernatant only ([1]; nuclear pellet excluded) [%] | Total recovered radioactivity in the cytosolic fraction ([1]; ±Z) | Protein-bound MTX level at 30 min ([3]; absence of Z) [pmol/10^7 cells] | Protein-bound MTX level at 30 min ([3]; presence of 0.5 mM Z) [pmol/10^7 cells] | Toxicity in clinical trials [4] | Potentiation of [3H]MTX transport in RFC-transfected clones compared with CCRF-CEM [7]
2.2 |  |  |  |  |  |  |  |  | CN(Cc1cnc2nc(N)nc(N)c2n1)c1ccc(C(=O)N[C@@H](CCC(=O)O)C(=O)O)cc1 [MTX, 4-amino-10-methylpteroylglutamic acid] | > 90 | > 98 | More than 91% | 6.4±0.1 | 5.4±0.4 |  | 
 | 1 | 1 | 108.3 | 91.3 | 4.25 | 5.65 | 410 ± 50 | 130 ± 20 | NC(=O)c1ncn([C@@H]2O[C@H](CO)[C@@H](O)[C@H]2O)c1N [Z, 5-amino-4-imidazolecarboxamide riboside] |  |  |  |  |  | nontoxic | potentiated by Z to a similar extent
